Patent publication US20150147273A1, “RADIOLABELED ANALOG(S) OF COMPOUND 0118 AND USE THEREOF IN CONNECTION WITH PET AND/OR SPECT IMAGING TO DETERMINE WHETHER A PHARMACEUTICAL CONTAINING COMPOUND 0118 IS A CANDIDATE CANCER TREATMENT FOR A PATIENT” (KONINKLIJKE PHILIPS N.V., priority 2012, published 2015)

The compounds below were run on MA148 human ovarian carcinoma cells (assay: [3H]thymidine incorporation cell proliferation assay (FIG. 15)). Conditions: compared with 0118.
Format: cell-based
Description: Evaluation of the anti-angiogenic activity of lower-rim substituted 0118 analogues (compound 4, compound 5) and equatorially substituted 0118 analogues (compound 13, compound 14, compound 18a, compound 18b, compound 18c).

Which “potency of inhibition of MA148 cell proliferation relative to parent compound 0118” value does the source give for `CCCC1c2cccc(c2OCC(=O)NCCN(C)C)Cc2cccc(c2OCC(=O)NCCN(C)C)Cc2cccc(c2OCC(=O)NCCN(C)C)Cc2cccc1c2OCC(=O)NCCN(C)C` [compound 18b, 25,26,27,28-Tetrakis-N—(N,N-dimethyl-2-aminoethyl)carbamoylmethoxy-2-propylcalix[4]arene] here?
Its value is “at least three times more potent than 0118”.

For `C#CCC1c2cccc(c2OCC(=O)NCCN(C)C)Cc2cccc(c2OCC(=O)NCCN(C)C)Cc2cccc(c2OCC(=O)NCCN(C)C)Cc2cccc1c2OCC(=O)NCCN(C)C` [compound 13, 25,26,27,28-Tetrakis-N—(N,N-dimethyl-2-aminoethyl)carbamoylmethoxy-2-(prop-2′-yn-1′-yl)calix[4]arene], which “potency of inhibition of MA148 cell proliferation relative to parent compound 0118” value is on record?
The value was “at least three times more potent than 0118”.

`CN(C)CCNC(=O)COc1c2cccc1Cc1cccc(c1OCC(=O)NCCN(C)C)Cc1cccc(c1OCC(=O)NCCN(C)C)Cc1cccc(c1OCCc1cn(CCF)nn1)C2` [compound 5, 25,26,27-Tris-N—(N,N-dimethyl-2-aminoethyl)carbamoylmethoxy-28-{2′-[1-(2-fluorethyl)-1H-[1,2,3]triazo-4-yl]ethyloxy}calix[4]arene] was tested. Which “potency of inhibition of MA148 cell proliferation relative to parent compound 0118” value did it give?
The value was “more potent inhibitor of MA148 cell proliferation”.

How did the “potency of inhibition of MA148 cell proliferation relative to parent compound 0118” value turn out when `C#CCCOc1c2cccc1Cc1cccc(c1OCC(=O)NCCN(C)C)Cc1cccc(c1OCC(=O)NCCN(C)C)Cc1cccc(c1OCC(=O)NCCN(C)C)C2` [compound 4, 25,26,27-Tris-N—(N,N-dimethyl-2-aminoethyl)carbamoylmethoxy-28-(3′-butynyloxy)calix[4]arene] was run?
Its value is “at least equipotent”.

With `CN(C)CCNC(=O)COc1c2cccc1Cc1cccc(c1OCC(=O)NCCN(C)C)C(Cc1cn(CCF)nn1)c1cccc(c1OCC(=O)NCCN(C)C)Cc1cccc(c1OCC(=O)NCCN(C)C)C2` [compound 14, 25,26,27,28-Tetrakis-N—(N,N-dimethyl-2-aminoethyl)carbamoylmethoxy-2-{[1-(2-fluorethyl)-1H-[1,2,3]triazo-4-yl]methyl}calix[4]arene] as the compound, how does the “potency of inhibition of MA148 cell proliferation relative to parent compound 0118” value read?
The value was “at least three times more potent than 0118”.

What follows are compounds tested on endothelial cell proliferation (assay: endothelial cell proliferation assays). Conditions: not given.
Format: cell-based
Description: As an alternative to upper-rim substitution, [^18F]-labeled synthons may also be introduced at the lower rim or at an equatorial position of the calix[4]arene core of compound 0118. […] Based on this knowledge, close mimetics of compound 0118 have been produced, where one of the four lower rim substituents is replaced by a substituent containing an alkyne- or azide-functional group, providing access to [^18F]fluoroalkyltriazole-labeled compound 0118 analogues via Huisgen 1,3-dipolar cycloaddition reaction with the corresponding [^18F]fluoroalkynes and [^18F]fluoroazides, respectively.

Which “anti-angiogenic potency compared with compound 0118” value does the source give for `CN(C)CCNC(=O)COc1c2cccc1Cc1cccc(c1OCC(=O)NCCN(C)C)Cc1cccc(c1OCC(=O)NCCN(C)C)Cc1cccc(c1OCCc1cn(CCF)nn1)C2` [compound 5, 25,26,27-Tris-N—(N,N-dimethyl-2-aminoethyl)carbamoylmethoxy-28-{2′-[1-(2-fluorethyl)-1H-[1,2,3]triazo-4-yl]ethyloxy}calix[4]arene] here?
Its value is “comparable anti-angiogenic potency”.
